# Measurements taken from patent US20240293514A1, “PHARMACEUTICAL COMPOSITIONS COMPRISING GLP-1R AGONISTS” (4MOVING BIOTECH, priority 2021, published 2024).
# Marks after values point to notes of the source that are not given here.
# Assays:
# Type in all cases: in vivo, SD rats
# [1] = test system: MIA-induced model of osteoarthritis and inflammatory pain in rats; assay: Electronic von Frey test, various GLP-1R agonists, MIA-induced model (Example 7, cycle 1)
# Protocol: (§1) Seven groups comprising 8 SD rats per group were allocated for this study performed in 2 cycles (4 SD rats/cycle). Chemically-induced OA disease was performed on six out of seven groups by injecting intra-articularly (IA) in the right knee joint 3 mg of MIA in 30 μL on day 1. The control group (sham/vehicle control) received 30 μL of saline IA in the right knee joint. […] All groups 31M-37M received 1 IA injection of either saline (group 31M) or MIA (groups 32M to 37M) on day 1 and the treatment injection on day 3. During the study, body weight measurements (twice a week) and von Frey tests using electronic von Frey apparatus (on day 2, 7, for C1) and von Frey filaments (on day 10, 18, 24 and 30 for Cl, and on day 2, 7, 10, 18, 24 and 30 for C2) were performed. Group allocation was performed on day 2, based on von Frey results. Knee harvesting was performed for optional analyses at study termination at day 32.
# (§2) A solution comprising dulaglutide is prepared from the product Trulicity®. Trulicity® is a commercial dulaglutide drug. Trulicity® is supplied as a “ready to use” solution at 4.5 mg/0.50 mL. It will be diluted in the appropriate volume of vehicle (NaCl 0.9%) for injection into knee joint of 270 μg in 30 μL per rat for group 33M.
# (§3) Bydureon® is supplied as a “ready to use” solution at 2 mg/0.65 mL. It will be diluted in the appropriate volume of vehicle (NaCl 0.9%) for injection into knee joint of 92.31 μg in 30 μL per rat for group 34M.
# (§4) Bydureon Bcise® is supplied as a “ready to use” solution at 2.35 mg/mL. It will be diluted in the appropriate volume of vehicle (NaCl 0.9%) for injection into knee joint of 70.6 μg in 30 μL per rat for group 35M.
# (§5) A solution comprising lixisenatide is prepared from the product Adlyxin®. Adlyxin® is a commercial lixisenatide drug. Adlyxin® is supplied as a “ready to use” solution at 100 μg/mL. It will be diluted in the appropriate volume of vehicle (NaCl 0.9%) for injection into knee joint of 3 μg in 30 μL per rat for group 36M.
# (§6) It will be diluted in the appropriate volume of vehicle (NaCl 0.9%) for injection into knee joint of 180 μg in 30 μL per rat for group 37M.
# (§7) 56 male SD rats aged 9 weeks were anesthetized via a chamber induction technique using inhalation anesthesia (Isoflurane at 5%). During the procedure, the animal was maintained under Isoflurane at a level between 1.5 and 3% with an air flow rate of 1-2 liters/minute. After induction of anesthesia, the right hind limb skin surface was clipped free of hair using electric animal clippers. After shaving, the area surrounding the knee joint was wiped with alcohol. A volume of 30 μL containing 3 mg MIA was injected intra-articularly (IA) in the knee joint through the patellar tendon. A 29-gauge, 0.5-inch needle that fitted with cannulation tubing was used such that only 3 to 4 mm of the needle was allowed to puncture the joint. After injection, the knee was massaged to ensure even distribution of the solution. Animals were injected once on day 1 (groups 32M, 33M, 34M, 35M, 36M, 37M). For group 31M (sham control), 30 μL of injectable saline was injected into knee joint.
# (§8) Von Frey test in the rats following MIA injection was conducted according to 4P-Pharma's proceedings “Mechanical Neuropathic Pain Evaluation (electronic Von Frey)” and to 4P-Pharma's proceedings “Mechanical Neuropathic Pain Evaluation (Von Frey)”. Rats were placed individually in the designated transparent Plexiglas chambers and allowed to acclimate for 10-15 min. Withdrawal response to mechanical stimulation was determined using electronic von Frey apparatus (BIO-EVF5, Bioseb) with a 0.5 mm diameter tip placed on the stimulator handle applied from underneath the cage through openings (12×12 mm) in the plastic mesh floor or with von Frey filaments (Bio-VF-M, Bioseb). The withdrawal response in gram-force for each rat was calculated from three trials for von Frey apparatus and once with von Frey filaments.
# [2] = test system: MIA-induced model of osteoarthritis and inflammatory pain in rats; assay: Von Frey filaments test, various GLP-1R agonists, MIA-induced model (Example 7)
# Protocol: as §1, §2, §3, §4, §5, §6, §7, §8
# [3] = test system: MIA-induced model of osteoarthritis and inflammatory pain in rats; assay: Electronic and equivalent von Frey scores normalized to vehicle group (Example 7)
# Protocol: Allodynia in rats following OA induction on day 1 was evaluated on day 2 and on day 7 using both Electronic (for cycle 1) and von Frey filaments (for cycle 2). Both tests are reliable and valid for the assessment of the mechanical sensitivity in the ipsilateral hind paw of rats. Additionally, von Frey filament score can be transposed approximately to an equivalent electronic von Frey score (theorical pressure in grams/mm^2). To assure the obtained results, we performed a test using both von Frey filaments and Electronic von Frey apparatus on three rats from three different groups (31M, 32M and 37M).
# Equivalent electronic von Frey score was calculated using the “Aesthesio Precision Tactile sensory data chart” from the results obtained with von Frey filaments. Thus, to have a more representative vision of the results obtained in previous experiments using the electronic von Frey apparatus, we combine both the electronic von Frey scores obtained from Cycle 1 (Day 2 and 7) and the equivalent score calculated from the results obtained with the von Frey filaments for Cycle 1 (from day 10) and Cycle 2.
# [4] = 270 μg IA once on day 3, D2 (baseline before treatment)
# [5] = 180 μg IA once on day 3, D2 (baseline before treatment)
# [6] = 3 μg IA once on day 3, D2 (baseline before treatment)
substance,measurement,setting,value
dulaglutide,"right paw withdrawal threshold, Electronic von Frey (mean)",[1]; [4],30.03 grams
same,"right paw withdrawal threshold, Electronic von Frey (mean)","[1]; 270 μg IA once on day 3, D7",50.98 grams
same,"right paw withdrawal threshold, von Frey filaments (mean)",[2]; [4],2.28^$$$ grams
same,"right paw withdrawal threshold, von Frey filaments (mean)","[2]; 270 μg IA once on day 3, D7",2.85 grams
same,"right paw withdrawal threshold, von Frey filaments (mean)","[2]; 270 μg IA once on day 3, D10",4.75*** grams
same,"right paw withdrawal threshold, von Frey filaments (mean)","[2]; 270 μg IA once on day 3, D18",6.50*** grams
same,"right paw withdrawal threshold, von Frey filaments (mean)","[2]; 270 μg IA once on day 3, D24",7.00*** grams
same,"right paw withdrawal threshold, von Frey filaments (mean)","[2]; 270 μg IA once on day 3, D30",8.25*** grams
liraglutide,"right paw withdrawal threshold, Electronic von Frey (mean)",[1]; [5],32.88 grams
same,"right paw withdrawal threshold, Electronic von Frey (mean)","[1]; 180 μg IA once on day 3, D7",63.60 grams
same,"right paw withdrawal threshold, von Frey filaments (mean)",[2]; [5],1.60^$$$ grams
same,"right paw withdrawal threshold, von Frey filaments (mean)","[2]; 180 μg IA once on day 3, D7",8.00*** grams
same,"right paw withdrawal threshold, von Frey filaments (mean)","[2]; 180 μg IA once on day 3, D10",9.63*** grams
same,"right paw withdrawal threshold, von Frey filaments (mean)","[2]; 180 μg IA once on day 3, D18",11.63*** grams
same,"right paw withdrawal threshold, von Frey filaments (mean)","[2]; 180 μg IA once on day 3, D24",10.25*** grams
same,"right paw withdrawal threshold, von Frey filaments (mean)","[2]; 180 μg IA once on day 3, D30",9.00*** grams
same,von Frey score normalized to vehicle group (31M),"[3]; 180 μg IA (group 37M), at day 10, level maintained for 20 days",70%
lixisenatide,"right paw withdrawal threshold, Electronic von Frey (mean)",[1]; [6],33.55 grams
same,"right paw withdrawal threshold, Electronic von Frey (mean)","[1]; 3 μg IA once on day 3, D7",55.15 grams
same,"right paw withdrawal threshold, von Frey filaments (mean)",[2]; [6],1.30^$$$ grams
same,"right paw withdrawal threshold, von Frey filaments (mean)","[2]; 3 μg IA once on day 3, D7",5.00** grams
same,"right paw withdrawal threshold, von Frey filaments (mean)","[2]; 3 μg IA once on day 3, D10",7.63*** grams
same,"right paw withdrawal threshold, von Frey filaments (mean)","[2]; 3 μg IA once on day 3, D18",7.75*** grams
same,"right paw withdrawal threshold, von Frey filaments (mean)","[2]; 3 μg IA once on day 3, D24",7.25*** grams
same,"right paw withdrawal threshold, von Frey filaments (mean)","[2]; 3 μg IA once on day 3, D30",8.88*** grams
same,von Frey score normalized to vehicle group (31M),"[3]; 3 μg IA (group 36M), raised to and kept",60%
